In the test the target is S. aureus (SAU) GyrB ATPase (Staphylococcus aureus, UniProt P0A0K8). Put plainly: S. aureus GyrB ATPase inhibition, ammonium molybdate/malachite green phosphate detection assay. It is filed as biochemical. As to conditions: read-out: S. aureus (SAU) GyrB ATPase % Inhibition, compound concentration 12.5 μM. In a few lines:
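E. coli GyrA and S. aureus GyrB (1.25 nM each) with 500 μM ATP and 5 μg/ml sheared salmon sperm DNA in 50 mM Hepes pH 7.5, 8.0 mM MgCl2. Released phosphate detected with ammonium molybdate/malachite green at 650 nm; 2% DMSO as 0% and 2 μM novobiocin as 100% inhibition; IC50 from 10 concentrations.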
Sequence of S. aureus (SAU) GyrB ATPase (P0A0K8 whole entry): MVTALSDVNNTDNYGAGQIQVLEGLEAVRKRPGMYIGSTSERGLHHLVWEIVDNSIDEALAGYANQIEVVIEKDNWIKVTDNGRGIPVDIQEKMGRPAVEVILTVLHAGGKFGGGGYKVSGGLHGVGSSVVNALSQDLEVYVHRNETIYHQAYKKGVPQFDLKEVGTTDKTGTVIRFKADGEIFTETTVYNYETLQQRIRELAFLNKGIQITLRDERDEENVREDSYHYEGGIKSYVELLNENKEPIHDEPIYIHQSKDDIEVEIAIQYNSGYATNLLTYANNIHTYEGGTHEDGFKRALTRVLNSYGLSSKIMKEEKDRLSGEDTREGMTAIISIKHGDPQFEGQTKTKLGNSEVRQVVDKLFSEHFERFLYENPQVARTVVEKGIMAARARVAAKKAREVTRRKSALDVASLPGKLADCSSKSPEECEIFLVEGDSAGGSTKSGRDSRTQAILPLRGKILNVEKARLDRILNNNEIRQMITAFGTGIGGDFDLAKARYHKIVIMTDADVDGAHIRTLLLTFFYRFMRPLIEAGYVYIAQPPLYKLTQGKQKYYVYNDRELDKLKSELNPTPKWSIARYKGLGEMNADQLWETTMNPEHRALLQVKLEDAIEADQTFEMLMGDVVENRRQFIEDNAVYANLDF
Sequence of S. aureus (SAU) GyrB ATPase (P0AES4 whole entry, further chain): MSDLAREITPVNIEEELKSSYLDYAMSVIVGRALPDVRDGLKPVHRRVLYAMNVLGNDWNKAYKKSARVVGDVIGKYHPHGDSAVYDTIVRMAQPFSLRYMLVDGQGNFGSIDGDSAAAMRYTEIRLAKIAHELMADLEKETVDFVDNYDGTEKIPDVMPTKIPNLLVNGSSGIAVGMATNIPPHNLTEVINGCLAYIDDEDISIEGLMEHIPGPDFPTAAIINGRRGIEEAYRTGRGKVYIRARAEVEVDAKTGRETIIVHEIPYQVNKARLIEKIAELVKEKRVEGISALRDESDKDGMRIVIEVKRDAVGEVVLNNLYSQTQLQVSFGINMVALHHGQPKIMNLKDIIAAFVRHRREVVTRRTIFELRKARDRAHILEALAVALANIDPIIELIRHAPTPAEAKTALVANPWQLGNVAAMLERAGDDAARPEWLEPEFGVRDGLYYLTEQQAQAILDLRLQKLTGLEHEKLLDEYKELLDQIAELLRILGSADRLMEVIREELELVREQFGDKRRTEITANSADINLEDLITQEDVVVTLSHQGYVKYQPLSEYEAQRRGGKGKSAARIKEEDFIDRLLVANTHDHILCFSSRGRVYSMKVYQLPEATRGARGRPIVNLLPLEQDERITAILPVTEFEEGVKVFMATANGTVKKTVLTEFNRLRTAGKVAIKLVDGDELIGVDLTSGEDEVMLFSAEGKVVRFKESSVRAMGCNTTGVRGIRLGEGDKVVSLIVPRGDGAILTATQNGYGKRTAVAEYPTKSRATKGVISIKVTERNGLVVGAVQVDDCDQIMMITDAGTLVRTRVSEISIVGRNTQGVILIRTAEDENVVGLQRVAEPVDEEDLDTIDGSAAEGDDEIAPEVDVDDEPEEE
`CCNC(=O)Nc1ccc(-c2ccc(C(=O)OC)cn2)cn1` [Example 5, Methyl 6′-{[(ethylamino)carbonyl]amino}-2,3′-bipyridine-5-carboxylate]: the inhibition at 12.5 µM is 63.7%.

Regarding `CCNC(=O)Nc1ccc(-c2ccc3nc(C)c(C(=O)OCC)n3c2)cn1` [Example 139, ethyl 6-(6-{[(ethylamino)carbonyl]amino}pyridin-3-yl)-2-methylimidazo[1,2-a]pyridine-3-carboxylate], the inhibition at 12.5 µM came to 96.7%.

Take `CCNC(=O)Nc1ccc(-c2nc(-c3nccn3C)c(C(=O)O)s2)cn1` [Example 93, 2-(6-{[(Ethylamino)carbonyl]amino}pyridin-3-yl)-4-(1-methyl-1H-imidazol-2-yl)-1,3-thiazole-5-carboxylic acid]: the inhibition at 12.5 µM stood at 99.1%.

As for `CCNC(=O)Nc1cc(-c2ccccc2)c(-c2cncc(C(=O)O)c2)cn1` [Example 95, 6′-{[(Ethylamino)carbonyl]amino}-4′-phenyl-3,3′-bipyridine-5-carboxylic acid], the inhibition at 12.5 µM is 100%.

`CCNC(=O)Nc1cccc(-c2cccc(C(=O)N(C)C)c2)n1` [Example 156, 3-(6-{[(ethylamino)carbonyl]amino}pyridin-2-yl)-N,N-dimethylbenzamide]: the inhibition at 12.5 µM turned out to be 43%.

For the compound `CCNC(=O)Nc1ccc(-c2cccc3nc(C(=O)OCC)cn23)cn1` [Example 136, ethyl 5-(6-{[(ethylamino)carbonyl]amino}pyridin-3-yl)imidazo[1,2-a]pyridine-2-carboxylate], the inhibition at 12.5 µM amounted to 61%.

With `CCNC(=O)Nc1ccc(-c2nc(-c3ncnn3C)c(C(N)=O)s2)cn1` [Example 157, 2-(6-{[(ethylamino)carbonyl]amino}pyridin-3-yl)-4-(1-methyl-1H-1,2,4-triazol-5-yl)-1,3-thiazole-5-carboxamide], the inhibition at 12.5 µM is 101%.

As for `CCNC(=O)Nc1cc(-c2nc(C(C)(C)C)cs2)c(-c2cncc(C(=O)O)c2)cn1` [Example 145, 4′-(4-tert-butyl-1,3-thiazol-2-yl)-6′-{[(ethylamino)carbonyl]amino}-3,3′-bipyridine-5-carboxylic acid], the inhibition at 12.5 µM came to 101%.

For the compound `CCNC(=O)Nc1ccc(-c2nc(-c3nccn3C)c(C(=O)N(C)C)s2)cn1` [Example 112, 2-(6-{[(Ethylamino)carbonyl]amino}pyridin-3-yl)-N,N-dimethyl-4-(1-methyl-1H-imidazol-2-yl)-1,3-thiazole-5-carboxamide], the inhibition at 12.5 µM came out at 99.9%.

Turning to `CCNC(=O)Nc1ccc(-c2ccc(C(=O)OC)cc2)cn1` [Example 7, Methyl 4-(6-{[(ethylamino)carbonyl]amino}pyridin-3-yl)benzoate], the inhibition at 12.5 µM is 97.4%.

As to `CCNC(=O)Nc1cc(-c2ccc(F)nc2)c(-c2cncc(C(=O)OCC)c2)cn1` [Example 86, Ethyl 6′-{[(ethylamino)carbonyl]amino}-6″-fluoro-3,3′:4′,3″-terpyridine-5-carboxylate], the inhibition at 12.5 µM amounted to 99.9%.

`CCNC(=O)Nc1ccc(-c2nc(C(=O)N[C@@H](C)COC)c(C(=O)OCC)s2)cn1` [Example 74, Ethyl 2-(6-{[(ethylamino)carbonyl]amino}pyridin-3-yl)-4-({[(1S)-2-methoxy-1-methylethyl]amino}carbonyl)-1,3-thiazole-5-carboxylate]: the inhibition at 12.5 µM is 0.95%.

On to `CCNC(=O)Nc1ccc(-c2nc(C(=O)NC(C)(C)C)c(C(N)=O)s2)cn1` [Example 111, N^4-(tert-Butyl)-2-(6-{[(ethylamino)carbonyl]amino}pyridin-3-yl)-1,3-thiazole-4,5-dicarboxamide], for which the inhibition at 12.5 µM worked out at 101%.

For the compound `CCNC(=O)Nc1ccc(-c2cccc(C(=O)OC)c2)cn1` [Example 6, Methyl 3-(6-{[(ethylamino)carbonyl]amino}pyridin-3-yl)benzoate], the inhibition at 12.5 µM was 99.7%.

Turning to `CCNC(=O)Nc1ccc(-c2nc(C(C)=O)c(C(=O)N(C)C)s2)cn1` [Example 153, 4-acetyl-2-(6-{[(ethylamino)carbonyl]amino}pyridin-3-yl)-N,N-dimethyl-1,3-thiazole-5-carboxamide], the inhibition at 12.5 µM is 71.4%.

Regarding `CCCCNC(=O)c1csc(-c2cnc(NC(=O)NCC)cc2-c2ccccc2)n1` [Example 163, N-butyl-2-(6-{[(ethylamino)carbonyl]amino}-4-phenylpyridin-3-yl)-1,3-thiazole-4-carboxamide], the inhibition at 12.5 µM amounted to 97.8%.

For the compound `CCNC(=O)Nc1cc(-c2cncc(F)c2)c(-c2cncc(C(=O)NC)c2)cn1` [Example 70, 6′-{[(ethylamino)carbonyl]amino}-5″-fluoro-N-methyl-3,3′:4′,3″-terpyridine-5-carboxamide], the inhibition at 12.5 µM was found to be 88.2%.

Consider `CCNC(=O)Nc1ccc(-c2ccc3nc(C(=O)O)cn3c2)cn1` [Example 28, 6-(6-{[(Ethylamino)carbonyl]amino}pyridin-3-yl)imidazo[1,2-a]pyridine-2-carboxylic acid], for which the inhibition at 12.5 µM turned out to be 96.8%.

Regarding `CCNC(=O)Nc1cc(-c2ccccc2)c(-c2cncc(C(=O)OCC)c2)cn1` [Example 77, Ethyl 6′-{[(ethylamino)carbonyl]amino}-4′-phenyl-3,3′-bipyridine-5-carboxylate], the inhibition at 12.5 µM turned out to be 101%.

Consider `CCNC(=O)Nc1cc(-c2nc(CC)cs2)c(-c2cccc(C(=O)N(C)C)c2)cn1` [Example 160, 3-[6-{[(ethylamino)carbonyl]amino}-4-(4-ethyl-1,3-thiazol-2-yl)pyridin-3-yl]-N,N-dimethylbenzamide], for which the inhibition at 12.5 µM turned out to be 95.5%.

Turning to `CCNC(=O)Nc1ccc(-c2nc(C(C)=O)c(C(N)=O)s2)cn1` [Example 154, 4-acetyl-2-(6-{[(ethylamino)carbonyl]amino}pyridin-3-yl)-1,3-thiazole-5-carboxamide], the inhibition at 12.5 µM worked out at 99.8%.

For the compound `CCCNC(=O)c1nc(-c2ccc(NC(=O)NCC)nc2)sc1C(=O)N(C)C` [Example 64, 2-[6-(3-ethyl-ureido)-pyridin-3-yl]-thiazole-4,5-dicarboxylic acid 5-dimethylamide 4-propylamide], the inhibition at 12.5 µM came to 92.6%.

Take `CCCCNC(=O)c1nc(-c2cnc(NC(=O)NCC)cc2-c2nc(CC)cs2)sc1C(=O)N(C)C` [Example 162, N^4-butyl-2-[6-{[(ethylamino)carbonyl]amino}-4-(4-ethyl-1,3-thiazol-2-yl)pyridin-3-yl]-N~5~,N~5~-dimethyl-1,3-thiazole-4,5-dicarboxamide]: the inhibition at 12.5 µM is 101%.

With `CCNC(=O)Nc1ccc(-c2nc(C(=O)N(C)C)c(C(=O)NCC)s2)cn1` [Example 54, N^5-Ethyl-2-(6-{[(ethylamino)carbonyl]amino}pyridin-3-yl)-N^4,N^4-dimethyl-1,3-thiazole-4,5-dicarboxamide], the inhibition at 12.5 µM stood at 89.8%.

As to `CCNC(=O)Nc1cc(-c2nc(CC)cs2)c(-c2cncc(C(=O)O)c2)cn1` [Example 99, 6′-{[(Ethylamino)carbonyl]amino}-4′-(4-ethyl-1,3-thiazol-2-yl)-3,3′-bipyridine-5-carboxylic acid], the inhibition at 12.5 µM was found to be 102%.

On to `CCNC(=O)Nc1cccc(-c2ccc(C(=O)O)cc2)n1` [Example 32, 4-(6-{[(Ethylamino)carbonyl]amino}pyridin-2-yl)benzoic acid], for which the inhibition at 12.5 µM was found to be 2.66%.

As for `CCCNC(=O)c1sc(-c2ccc(NC(=O)NCC)nc2)nc1C(=O)N(C)C` [Example 55, 2-[6-(3-Ethyl-ureido)-pyridin-3-yl]-thiazole-4,5-dicarboxylic acid 4-dimethylamide 5-propylamide], the inhibition at 12.5 µM was 86.4%.

In the case of `CCNC(=O)Nc1ccc(-c2nc(C(=O)N(C)C)c(C(=O)NC(C)(C)C)s2)cn1` [Example 159, N^5-(tert-butyl)-2-(6-{[(ethylamino)carbonyl]amino}pyridin-3-yl)-N^4,N^4-dimethyl-1,3-thiazole-4,5-dicarboxamide], the inhibition at 12.5 µM amounted to 95.3%.

In the case of `CCNC(=O)Nc1cc(-c2nc(C(F)(F)F)cs2)c(-c2cncc(C(=O)NC3CC3)c2)cn1` [Example 126, N-Cyclopropyl-6′-{[(ethylamino)carbonyl]amino}-4′-[4-(trifluoromethyl)-1,3-thiazol-2-yl]-3,3′-bipyridine-5-carboxamide], the inhibition at 12.5 µM was determined as 96.2%.

As to `CCNC(=O)Nc1ccc(-c2nc(C(=O)N[C@@H](C)COC)c(C(=O)O)s2)cn1` [Example 92, 2-(6-{[(ethylamino)carbonyl]amino}pyridin-3-yl)-4-({[(1S)-2-methoxy-1-methylethyl]amino}carbonyl)-1,3-thiazole-5-carboxylic acid], the inhibition at 12.5 µM worked out at 101%.

In the case of `CCNC(=O)Nc1ccc(-c2nc(C(=O)NCCOC)c(C(=O)O)s2)cn1` [Example 91, 2-(6-{[(Ethylamino)carbonyl]amino}pyridin-3-yl)-4-{[(2-methoxyethyl)amino]carbonyl}-1,3-thiazole-5-carboxylic acid], the inhibition at 12.5 µM stood at 101%.

Turning to `CCNC(=O)Nc1ccc(-c2nc(C(=O)N(C)C)c(C(=O)NC(C)C)s2)cn1` [Example 56, 2-[6-(3-Ethyl-ureido)-pyridin-3-yl]-thiazole-4,5-dicarboxylic acid 4-dimethylamide 5-isopropylamide], the inhibition at 12.5 µM was found to be 84.1%.

For `CCNC(=O)Nc1ccc(-c2ccc3c(c2)c(=O)c(C(=O)O)cn3CCOC)cn1` [Example 46, 6-(6-(3-Ethylureido)pyridin-3-yl)-1-(2-methoxyethyl)-4-oxo-1,4-dihydroquinoline-3-carboxylic acid], the inhibition at 12.5 µM is 83.4%.

`CCNC(=O)Nc1ccc(-c2nc(C(=O)NC3CC3)c(C(=O)OCC)s2)cn1` [Example 9, Ethyl 4-[(cyclopropylamino)carbonyl]-2-(6-{[(ethylamino)carbonyl]amino}pyridin-3-yl)-1,3-thiazole-5-carboxylate]: the inhibition at 12.5 µM amounted to 93.5%.

For the origin of these results see patent publication US7674801B2 (AstraZeneca AB, priority 2006, dated 2010).
